Measurements as given in the supplement of paper PMC10307832.

Assays:
Test in all cases: relative viability (nuclei count vs DMSO), 5 days (fraction); higher = more cells survive
Sorafenib + Olaparib = compound: CNC(=O)c1cc(Oc2ccc(NC(=O)Nc3ccc(Cl)c(C(F)(F)F)c3)cc2)ccn1 [Sorafenib] + O=C(c1cc(Cc2n[nH]c(=O)c3ccccc23)ccc1F)N1CCN(C(=O)C2CC2)CC1 [Olaparib] (partner 8 µM)
In short: (§1)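 Relative viability divides the nuclei count in treated wells by that in vehicle wells. Lung cancer cell lines were seeded in 1536-well plates, dosed by pin tool the next day, and fixed and stained after 5 days in one step with final 0.05% Triton X-100, 1% formaldehyde and 1 ug/ml Hoechst. Dosing was a single drug or a fixed anchor-drug dose plus five library-drug doses (not always all listed) in √10 steps, and values are medians of duplicate plates imaged at 4×.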

Sorafenib + Pictilisib = compound: CNC(=O)c1cc(Oc2ccc(NC(=O)Nc3ccc(Cl)c(C(F)(F)F)c3)cc2)ccn1 [Sorafenib] + CS(=O)(=O)N1CCN(Cc2cc3nc(-c4cccc5[nH]ncc45)nc(N4CCOCC4)c3s2)CC1 [Pictilisib] (partner 1 µM)
In short: as §1

Sorafenib + Bortezomib = compound: CNC(=O)c1cc(Oc2ccc(NC(=O)Nc3ccc(Cl)c(C(F)(F)F)c3)cc2)ccn1 [Sorafenib] + CC(C)C[C@H](NC(=O)[C@H](Cc1ccccc1)NC(=O)c1cnccn1)B(O)O [Bortezomib] (partner 0.002 µM)
In short: as §1

Sorafenib + Pemetrexed = compound: CNC(=O)c1cc(Oc2ccc(NC(=O)Nc3ccc(Cl)c(C(F)(F)F)c3)cc2)ccn1 [Sorafenib] + Nc1nc2[nH]cc(CCc3ccc(C(=O)N[C@@H](CCC(=O)O)C(=O)O)cc3)c2c(=O)[nH]1 [Pemetrexed] (partner 0.2 µM)
In short: as §1

Sorafenib + Palbociclib = compound: CNC(=O)c1cc(Oc2ccc(NC(=O)Nc3ccc(Cl)c(C(F)(F)F)c3)cc2)ccn1 [Sorafenib] + CC(=O)c1c(C)c2cnc(Nc3ccc(N4CCNCC4)cn3)nc2n(C2CCCC2)c1=O [Palbociclib] (partner 0.5 µM)
In short: as §1

Row | Cell Line | relative viability (Sorafenib + Olaparib; first compound 0.08 µM) | relative viability (Sorafenib + Olaparib; first compound 0.253 µM) | relative viability (Sorafenib + Olaparib; first compound 2.53 µM) | relative viability (Sorafenib + Olaparib; first compound 8 µM) | relative viability (Sorafenib + Pictilisib; first compound 0.08 µM) | relative viability (Sorafenib + Pictilisib; first compound 0.253 µM) | relative viability (Sorafenib + Pictilisib; first compound 2.53 µM) | relative viability (Sorafenib + Pictilisib; first compound 8 µM) | relative viability (Sorafenib + Bortezomib; first compound 0.08 µM) | relative viability (Sorafenib + Bortezomib; first compound 0.253 µM) | relative viability (Sorafenib + Bortezomib; first compound 2.53 µM) | relative viability (Sorafenib + Pemetrexed; first compound 0.08 µM) | relative viability (Sorafenib + Pemetrexed; first compound 0.253 µM) | relative viability (Sorafenib + Pemetrexed; first compound 2.53 µM) | relative viability (Sorafenib + Pemetrexed; first compound 8 µM) | relative viability (Sorafenib + Palbociclib; first compound 0.08 µM) | relative viability (Sorafenib + Palbociclib; first compound 0.253 µM) | relative viability (Sorafenib + Palbociclib; first compound 2.53 µM) | relative viability (Sorafenib + Palbociclib; first compound 8 µM) | relative viability (Sorafenib + Bortezomib; first compound 8 µM)
1 | HCC-827 | 0.621 | 0.623 | 0.572 | 0.464 | 1.19 | 0.897 | 0.861 | 0.727 | 1.06 | 1.04 | 0.929 | 0.255 | 0.288 | 0.281 | 0.251 | 0.572 | 0.478 | 0.492 | 0.514 | –
2 | HOP-62 | 0.28 | 0.389 | 0.405 | 0.249 | 0.685 | 0.632 | 0.619 | 0.68 | 0.639 | 0.64 | – | 0.324 | 0.303 | 0.193 | 0.135 | 0.454 | 0.372 | 0.358 | 0.263 | 0.232
3 | LC-2-ad | 0.738 | 0.768 | 0.751 | 0.655 | 0.432 | 0.369 | 0.32 | 0.193 | 1.25 | 1.01 | 0.914 | 0.305 | 0.293 | 0.258 | 0.274 | 0.54 | 0.456 | 0.447 | 0.393 | 0.618
4 | LCLC-97TM1 | 0.413 | 0.324 | 0.297 | 0.253 | 0.152 | 0.207 | 0.211 | 0.16 | 0.725 | 0.623 | 0.992 | 0.154 | 0.168 | 0.118 | 0.226 | 0.251 | 0.195 | 0.182 | 0.184 | 0.73
5 | LCLC-103H | 0.796 | 0.734 | 0.831 | 0.832 | 0.689 | 0.581 | 0.698 | 0.758 | 1.08 | 1.23 | 1.05 | 0.526 | 0.437 | 0.422 | 0.451 | 0.415 | 0.461 | 0.479 | 0.52 | 1.08
6 | LOU-NH91 | 0.936 | 0.975 | 0.96 | 0.657 | 0.557 | 0.543 | 0.585 | 0.491 | 0.548 | 0.454 | 0.552 | 0.419 | 0.37 | 0.436 | – | 0.533 | 0.52 | 0.55 | 0.533 | 0.537
7 | LU99A | 0.244 | 0.234 | 0.244 | 0.237 | 0.308 | 0.3 | 0.347 | 0.325 | 1.21 | 1.12 | 1.06 | 0.195 | 0.166 | 0.193 | 0.138 | 0.431 | 0.445 | 0.39 | 0.393 | 0.714
8 | LXF-289 | 1.03 | 1.04 | 1.01 | 0.96 | 0.834 | 0.727 | 0.828 | 0.779 | 0.98 | 0.997 | 1.03 | 0.886 | 0.782 | 0.932 | 0.787 | 0.612 | 0.618 | 0.74 | 0.616 | 0.926
9 | NCI-H23 | 0.31 | 0.249 | 0.343 | 0.266 | 0.474 | 0.445 | 0.39 | 0.362 | 0.97 | 0.89 | 0.804 | 0.764 | 0.609 | 0.716 | 0.421 | 0.522 | 0.503 | 0.514 | 0.389 | 0.861
10 | NCI-H322M | 0.903 | 0.66 | 0.678 | 0.918 | – | 0.593 | 0.62 | 0.695 | 1.3 | 1.18 | – | 0.728 | 0.618 | 0.739 | 0.763 | 0.524 | 0.589 | 0.525 | 0.63 | 1.55
11 | NCI-H441 | 0.593 | 0.5 | 0.455 | 0.308 | 0.524 | 0.476 | 0.409 | 0.445 | 0.489 | 0.433 | 0.277 | 0.283 | 0.234 | 0.257 | 0.227 | 0.222 | 0.245 | 0.252 | 0.164 | 0.219
12 | NCI-H460 | 0.399 | 0.335 | 0.345 | 0.324 | – | 0.442 | 0.51 | 0.3 | 1.01 | 1.02 | 0.972 | 0.0604 | 0.0653 | 0.0731 | 0.0582 | 0.176 | 0.118 | 0.136 | 0.137 | –
13 | NCI-H520 | 0.356 | 0.281 | 0.313 | 0.126 | 0.337 | 0.322 | 0.307 | 0.188 | 0.828 | 0.665 | 0.599 | 0.731 | 0.781 | 0.58 | 0.199 | 0.192 | 0.208 | 0.225 | 0.172 | 0.232
14 | NCI-H647 | 0.568 | 0.524 | 0.356 | 0.0229 | 0.544 | – | 0.475 | 0.374 | 1.17 | 0.829 | 0.745 | 0.171 | 0.141 | 0.126 | 0.0896 | 0.373 | 0.316 | 0.284 | 0.082 | 0.39
15 | NCI-H650 | 0.377 | 0.312 | 0.295 | 0.227 | 0.911 | 0.751 | 0.696 | 0.746 | 0.759 | 0.581 | 0.746 | 0.928 | 0.799 | 0.904 | 0.795 | 0.435 | 0.303 | 0.268 | 0.355 | 0.677
16 | NCI-H661 | 0.726 | 0.764 | 0.679 | 0.444 | 0.456 | 0.397 | 0.422 | 0.286 | 0.96 | 0.871 | 0.648 | 0.918 | 0.688 | 0.883 | 0.427 | 0.4 | 0.408 | 0.385 | 0.289 | 0.615
